Laboratory results taken from patent US4806532A, “Inhibition of epithelial phosphate transport” (Mayo Foundation for Medical Education and Research, priority 1985, dated 1989).
Structures can show the parent of a compound that is named as a salt.

Molecular target: T1, BBM enzymes APase (Rattus norvegicus, UniProt P08289)
T1 construct: from tissue; host or cells: renal brush border membrane vesicles (rat inferred)
T1 sequence (P08289 18-502 limits assumed): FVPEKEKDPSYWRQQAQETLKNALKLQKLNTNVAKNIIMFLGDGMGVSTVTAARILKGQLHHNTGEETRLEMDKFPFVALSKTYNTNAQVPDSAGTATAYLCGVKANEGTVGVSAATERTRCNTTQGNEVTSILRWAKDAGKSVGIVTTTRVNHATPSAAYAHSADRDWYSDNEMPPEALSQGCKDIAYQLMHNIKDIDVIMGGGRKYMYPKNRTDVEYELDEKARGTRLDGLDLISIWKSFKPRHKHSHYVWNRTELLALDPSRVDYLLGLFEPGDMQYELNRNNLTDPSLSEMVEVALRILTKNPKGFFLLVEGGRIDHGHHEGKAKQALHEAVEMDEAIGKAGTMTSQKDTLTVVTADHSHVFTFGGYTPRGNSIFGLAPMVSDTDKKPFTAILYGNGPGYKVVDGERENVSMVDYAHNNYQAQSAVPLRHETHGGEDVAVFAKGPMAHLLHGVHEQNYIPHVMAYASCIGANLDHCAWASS
Test: Effect on BBM enzyme APase (data not shown)
Assay type: biochemical

O=C(O)P(=O)(O)O [TPFA, Phosphonoformic acid, trisodium salt hexahydrate]
effect on BBM enzyme APase: without inhibitory effect
